Laboratory results taken from PubChem BioAssay (NCI).
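Tested at 5 concentrations; 48 h exposure; 96-well plates; endpoints linearly interpolated, else capped at highest concentration. Here, GI50 denotes the concentration required for 50% inhibition of growth. TGI denotes the concentration required for complete inhibition of growth.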 Where a SMILES comes first, the peptide text is derived from it. The star is where a group is joined. Bn = c1ccc(C*)cc1

Assays:
Experiment in all cases: NCI-60 cell line screen, 48 h
MCF7 breast = system: MCF7 breast
DU-145 prostate = system: DU-145 prostate
A498 renal = system: A498 renal
OVCAR-5 ovarian = system: OVCAR-5 ovarian
U251 CNS = system: U251 CNS
OVCAR-3 ovarian = system: OVCAR-3 ovarian
786-0 renal = system: 786-0 renal
NCI-H522 lung = system: NCI-H522 lung
K-562 leukemia = system: K-562 leukemia
SNB-19 CNS = system: SNB-19 CNS

Row | Compound | TGI (MCF7 breast) | TGI (DU-145 prostate) | TGI (A498 renal) | TGI (OVCAR-5 ovarian) | TGI (U251 CNS) | TGI (OVCAR-3 ovarian) | TGI (786-0 renal) | TGI (NCI-H522 lung) | TGI (K-562 leukemia) | TGI (SNB-19 CNS) | GI50 (DU-145 prostate) | GI50 (MCF7 breast) | GI50 (A498 renal) | GI50 (K-562 leukemia) | GI50 (OVCAR-5 ovarian) | GI50 (U251 CNS) | GI50 (SNB-19 CNS) | GI50 (OVCAR-3 ovarian) | GI50 (NCI-H522 lung)
1 | CCOC(=O)[C@@H]1ON2O[C@@H](OC3CCCC3(c3ccccc3)c3ccccc3)C[C@H]3OC(=O)[C@@H]1C32 (some centres undefined) | 52.1 µM | 55.6 µM | > 100 µM | 78.4 µM | > 100 µM | 54.1 µM | 79 µM | 91.9 µM | – | – | – | – | – | – | – | – | – | – | –
2 | Cc1ccc(-c2c(C#N)c(-c3ccc([N+](=O)[O-])cc3)c(C#N)c(=O)n2NS(=O)(=O)c2ccccc2)cc1 | 54.1 µM | – | > 100 µM | > 100 µM | > 100 µM | – | > 100 µM | > 100 µM | > 100 µM | > 100 µM | – | – | – | – | – | – | – | – | –
3 | COC(=O)[C@H](Cc1ccccc1)NC(=O)c1ccc(CNC(=O)/C=C/c2cccc(Oc3ccccc3)c2)cc1 | > 100 µM | > 100 µM | 51.7 µM | > 100 µM | > 100 µM | 40.4 µM | > 100 µM | – | > 100 µM | > 100 µM | – | – | – | – | – | – | – | – | –
4 | COc1cc2c(cc1OC)C13CC[N+]4(C)CC5=CCOC6CC(=O)N2C1C6C5CC34[O-] (centres undefined) | > 100 µM | > 100 µM | > 100 µM | – | > 100 µM | > 100 µM | > 100 µM | > 100 µM | > 100 µM | > 100 µM | – | – | – | – | – | – | – | – | –
5 | Cc1cc2nc(-c3cc(C(C)(C)C)c(O)c(C(C)(C)C)c3)[nH]c2cc1C | – | > 100 µM | > 100 µM | > 100 µM | > 34.3 µM | > 100 µM | 2.73 µM | > 100 µM | > 43.1 µM | > 100 µM | – | – | – | – | – | – | – | – | –
6 | CC1=CC(=O)CC2(C)CCC(C(C)CC(=O)CC(C)C)CC12 (centres undefined) | 66.8 µM | > 100 µM | > 100 µM | > 100 µM | > 100 µM | – | 31 µM | 30.8 µM | > 100 µM | > 100 µM | – | – | – | – | – | – | – | – | –
7 | Cc1c2ccncc2c(C)c2c1[nH]c1ccccc12 | 2.54 µM | 2.13 µM | 3.62 µM | 4.23 µM | 2.08 µM | 2.65 µM | – | 2.93 µM | 5.09 µM | 2.09 µM | 0.695 µM | – | – | – | – | – | – | – | –
8 | O=c1n(Cc2ccccc2)c(=O)n2c(=O)n(Cc3ccccc3)c(=O)n12 | > 100 µM | > 100 µM | > 100 µM | – | > 100 µM | – | > 100 µM | > 100 µM | > 100 µM | > 100 µM | – | – | – | – | – | – | – | – | –
9 | COc1ccc(-c2csc(NC(=O)CSc3nc(C)c(-c4ccccc4)n3Nc3ccccc3)n2)cc1 | > 100 µM | > 100 µM | > 100 µM | > 100 µM | > 100 µM | > 100 µM | – | > 100 µM | > 100 µM | > 100 µM | 18 µM | 8.25 µM | 31.2 µM | 5.29 µM | > 100 µM | > 100 µM | > 100 µM | 9.61 µM | 3.35 µM
10 | COc1cc(CNc2nc3cc(C(F)(F)F)ccc3nc2-c2ccccc2)cc(OC)c1OC | 22.4 µM | > 100 µM | – | – | > 100 µM | > 100 µM | > 100 µM | > 100 µM | > 100 µM | > 100 µM | – | – | – | – | – | – | – | – | –
11 | O=C(O)CC(NC(=O)/C(=C/c1ccccc1O)NC(=O)c1ccccc1)C(=O)O (centres undefined) | > 100 µM | – | > 100 µM | > 100 µM | > 100 µM | > 100 µM | > 100 µM | > 100 µM | > 100 µM | – | – | – | – | – | – | – | – | – | –
12 | COC(=O)C(CC(C)C)NC(=O)C(N)Cc1ccc(OCc2ccccc2)cc1 (centres undefined) (H-Tyr(Bn)-Leu-OMe; configuration not given here) | – | > 10 µM | > 10 µM | > 10 µM | > 10 µM | > 10 µM | > 10 µM | > 10 µM | > 10 µM | > 10 µM | – | – | – | – | – | – | – | – | –
13 | Nc1nc(Nc2ccc(Cl)cc2)sc1C(=O)c1cccs1 | > 100 µM | > 100 µM | 72.9 µM | > 100 µM | 38.4 µM | 72.1 µM | > 100 µM | – | – | 47.6 µM | – | – | – | – | – | – | – | – | –
14 | C[C@]12CC[C@H](O)C=C1CC[C@@H]1[C@@H]2CC[C@]2(C)C(c3ccc(=O)oc3)CC[C@]12O (some centres undefined) | 0.173 µM | – | 0.081 µM | 0.321 µM | 0.102 µM | 0.018 µM | – | 0.0155 µM | 0.405 µM | 0.237 µM | – | – | – | – | – | – | – | – | –
15 | NS(=O)(=O)c1ccc(NC(NC(=O)C(C(F)(F)F)C(F)(F)F)(C(F)(F)F)C(F)(F)F)cc1 | > 100 µM | > 100 µM | – | > 100 µM | > 100 µM | > 100 µM | > 100 µM | > 100 µM | > 100 µM | > 100 µM | – | – | – | – | – | – | – | – | –
16 | CCCCC/C(C=O)=C\c1ccccc1 | > 100 µM | > 100 µM | > 100 µM | – | > 100 µM | – | > 100 µM | – | 69.8 µM | > 100 µM | – | – | – | – | – | – | – | – | –
17 | CC(C)CCn1nc(N)c2nc3ccccc3nc21 | > 100 µM | – | > 100 µM | > 100 µM | > 100 µM | > 100 µM | > 100 µM | > 100 µM | > 100 µM | > 100 µM | – | – | – | – | – | – | – | – | –
18 | Cc1c(C#N)c(N)n(C2OCC(O)C(O)C2O)c(=S)c1C#N (centres undefined) | > 100 µM | > 100 µM | > 100 µM | > 100 µM | – | > 100 µM | > 100 µM | > 100 µM | > 100 µM | > 100 µM | – | – | – | – | – | – | – | – | –
19 | CCCCC#CS(=O)(=O)C(F)(F)F | > 100 µM | – | > 100 µM | > 100 µM | > 100 µM | > 100 µM | – | > 100 µM | > 100 µM | > 100 µM | – | – | – | – | – | – | – | – | –
20 | CC1(C)[C@@H](Cn2cnc3c(Cl)nc(N)nc32)CC[C@@]1(C)CO | > 100 µM | > 100 µM | > 100 µM | > 100 µM | > 100 µM | > 100 µM | > 100 µM | – | > 100 µM | > 100 µM | – | – | – | – | – | – | – | – | –
21 | C[C@]1(S(=O)(=O)c2ccccc2)C[C@H]2N(Cc3ccccc3)[C@@H]1CCC21OCCO1 | > 100 µM | > 100 µM | – | > 100 µM | > 100 µM | > 100 µM | > 100 µM | > 100 µM | > 100 µM | > 100 µM | – | – | – | – | – | – | – | – | –
22 | c1csc(-c2c3ccc(=[N+]4CCCCC4)cc-3oc3cc(N4CCCCC4)ccc23)c1 | – | 0.201 µM | 0.453 µM | 0.733 µM | – | – | – | – | – | – | 0.0578 µM | – | 0.0683 µM | – | 0.202 µM | – | – | – | –
23 | CC(C)(C)OC(=O)n1c(-c2ccccc2F)cc(=O)c2cc3c(cc21)OCO3 | > 100 µM | > 100 µM | > 94.7 µM | > 100 µM | > 32.9 µM | > 100 µM | > 44.3 µM | – | > 100 µM | > 100 µM | – | – | – | – | – | – | – | – | –
